From PubChem BioAssay (NCI)
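Tested at 5 concentrations; 48 h exposure; 96-well plates; endpoints linearly interpolated, else capped at highest concentration. GI50 marks 50% less growth. TGI: total growth inhibition.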

Experiments:
Assay in all cases: NCI-60 cell line screen, 48 h
[1] = tested on: K-562 leukemia
[2] = tested on: MALME-3M melanoma
[3] = tested on: CCRF-CEM leukemia
[4] = tested on: EKVX NSCLC
[5] = tested on: SN12C renal
[6] = tested on: SF-539 CNS
[7] = tested on: A549 NSCLC
[8] = tested on: HS 578T breast
[9] = tested on: OVCAR-5 ovarian
[10] = tested on: MDA-MB-435
[11] = tested on: SF-268 CNS
[12] = tested on: UACC-257 melanoma
[13] = tested on: SNB-19 CNS
[14] = tested on: PC-3 prostate
[15] = tested on: IGROV1 ovarian
[16] = tested on: BT-549 breast
[17] = tested on: SK-MEL-2 melanoma
[18] = tested on: M14 melanoma
[19] = tested on: T-47D breast
[20] = tested on: NCI-H226 lung
[21] = tested on: RPMI-8226 leukemia
[22] = tested on: SNB-75 CNS
[23] = tested on: U251 CNS
[24] = tested on: HL-60(TB) leukemia
[25] = tested on: TK-10 renal
[26] = tested on: ACHN renal
[27] = tested on: A498 renal

With `COc1ccc(N2CCN(C3=C(Cl)C(=O)c4ncccc4C3=O)CC2)cc1` the TGI [1] was 12 µM, the GI50 [2] was 2.06 µM and the TGI [2] was 6.05 µM. It also gave a GI50 [3] of 2.8 µM, a TGI [3] of over 100 µM and a GI50 [4] of 2.45 µM. For the same compound, the TGI [4] was 7.05 µM, the GI50 [5] was 11.1 µM and the TGI [5] was 25.6 µM. The GI50 [6] was 7.66 µM, the TGI [6] was 21.2 µM and the GI50 [7] was 15.9 µM. The TGI [7] was 35.2 µM, the GI50 [8] was 14.1 µM and the TGI [8] was 39 µM. The GI50 [9] was 16.2 µM, the TGI [9] was 30.3 µM and the GI50 [10] was 1.94 µM. The TGI [10] was 3.68 µM, the GI50 [11] was 19.2 µM and the TGI [11] was 50.1 µM. The GI50 [12] was 2.86 µM, the TGI [12] was 8.41 µM and the GI50 [13] was 16.9 µM. The TGI [13] was 32.9 µM, the GI50 [14] was 13.8 µM and the TGI [14] was 29.1 µM. For the same compound, the GI50 [15] was 3.25 µM, the TGI [15] was 11.6 µM and the GI50 [16] was 4.23 µM. The TGI [16] was 14.1 µM, the GI50 [17] was 12 µM and the TGI [17] was 25.4 µM. For the same compound, the GI50 [18] was 3.04 µM, the TGI [18] was 10.5 µM and the GI50 [19] was 1.78 µM. For the same compound, the TGI [19] was 4.26 µM, the GI50 [20] was 16.2 µM and the TGI [20] was 35.9 µM. For the same compound, the GI50 [21] was 2.69 µM, the TGI [21] was 7.32 µM and the GI50 [22] was 14.3 µM. The TGI [22] was 28.8 µM, the GI50 [23] was 10.7 µM and the TGI [23] was 24.1 µM. It also gave a GI50 [24] of 1.48 µM, a TGI [24] of 4.46 µM and a GI50 [25] of 4.11 µM. For the same compound, the TGI [25] was 11.6 µM, the GI50 [26] was 1.78 µM and the TGI [26] was 3.37 µM. For the same compound, the GI50 [27] was 15 µM and the TGI [27] was 29.1 µM.
